The values below come from US20250197392A1, “CRYSTALLINE FORMS OF AN INHIBITOR OF THE MENIN/MLL INTERACTION” (JANSSEN PHARMACEUTICA NV, priority 2022, published 2025).

One data set has as its system OCI-AML3 cells. Put plainly: Proliferation assay (spheroid assay) OCI-AML3. It is filed as cell-based, human. Conditions: 8 days, NPM1c mutated cell line; read-out: spheroid assay_OCI-AML3 IC50. The method, then: (§1) The anti-proliferative effect of menin/MLL protein/protein interaction inhibitor test compounds was assessed in human leukemia cell lines. The cell line MOLM14 harbors a MLL translocation and expresses the MLL fusion protein MLL-AF9, respectively, as well as the wildtype protein from the second allele. OCI-AML3 cells that carry the NPM1c gene mutation were also tested. […] KO-52 was used as a control cell line containing two MLL (KMT2A) wildtype alleles in order to exclude compounds that display general cytotoxic effects.
(§2) MOLM14 cells were cultured in RPMI-1640 (Sigma Aldrich) supplemented with 10% heat-inactivated fetal bovine serum (HyClone), 2 mM L-glutamine (Sigma Aldrich) and 50 μg/ml gentamycin (Gibco). […]
(§3) In order to assess the anti-proliferative effects, 200 MOLM14 cells, 200 OCI-AML3 cells or 300 KO-52 cells were seeded in 200 μl media per well in 96-well round bottom, ultra-low attachment plates (Costar, catalogue number 7007). […] Spheroid like growth was measured in real-time by live-cell imaging (IncuCyteZOOM, Essenbio, 4× objective) acquiring images at day 8. Confluence (%) as a measure of spheroid size was determined using an integrated analysis tool.
(§4) In order to determine the effect of the test compounds over time, the confluence in each well as a measure of spheroid size, was calculated. […]
(§5) Absolute IC50 values were calculated as percent change in confluence as follows: […]

The next data set has as its system MEIS1 mRNA expression. The data set can be described thus: MEIS1 mRNA expression assay (Quantigene Singleplex) in MOLM14 cells. It is filed as cell-based, human. Conditions: 48 hours incubation. The protocol: MEIS1 mRNA expression upon treatment of compound was examined by Quantigene Singleplex assay (Thermo Fisher Scientific). This technology allows for direct quantification of mRNA targets using probes hybridizing to defined target sequences of interest and the signal is detected using a Multimode plate reader Envision (PerkinElmer). The MOLM14 cell line was used for this experiment. Cells were plated in 96-well plates at 3,750 cells/well in the presence of increasing concentrations of compounds. After incubation of 48 hours with compounds, cells were lysed in lysis buffer and incubated for 45 minutes at 55° C. Cell lysates were mixed with human MEIS1 specific capture probe or human RPL28 (Ribosomal Protein L28) specific probe as a normalization control, as well as blocking probes. Cell lysates were then transferred to the custom assay hybridization plate (Thermo Fisher Scientific) and incubated for 18 to 22 hours at 55° C. Subsequently, plates were washed to remove unbound materials followed by sequential addition of preamplifiers, amplifiers, and label probe. Signals (=gene counts) were measured with a Multimode plate reader Envision. IC50s were calculated by dose-response modelling using appropriate software. […] Fold changes were calculated by dividing the normalized values for the treated samples by the normalized values for the DMSO treated sample. […]

Data set [1] addresses Menin/MLL (terbium chelate-labeled menin, FITC-MBM1 peptide) (Homo sapiens (Human), UniProt O00255). The data set can be described thus: Menin/MLL homogenous time-resolved fluorescence (HTRF) assay. The format is binding. Conditions: 30 min incubation of compound with labeled menin. The protocol:
To an untreated, white 384-well microtiter plate was added 40 nL 200× test compound in DMSO and 4 μL 2× terbium chelate-labeled menin (vide infra for preparation) in assay buffer (40 mM Tris·HCl, pH 7.5, 50 mM NaCl, 1 mM DTT (dithiothreitol) and 0.05% Pluronic F-127). After incubation of test compound and terbium chelate-labeled menin for 30 min at ambient temperature, 4 μL 2×FITC-MBM1 peptide (FITC-β-alanine-[…]-NH2) (“FITC” means fluorescein isothiocyanate) in assay buffer was added, the microtiter plate centrifuged at 1000 rpm for 1 min and the assay mixtures incubated for 15 min at ambient temperature. The relative amount of menin-FITC-MBM1 complex present in an assay mixture is determined by measuring the homogenous time-resolved fluorescence (HTRF) of the terbium/FITC donor/acceptor fluorphore pair using an EnVision microplate reader (ex. 337 nm/terbium em. 490 nm/FITC em. 520 nm) at ambient temperature. The degree of fluorescence resonance energy transfer (the HTRF value) is expressed as the ratio of the fluorescence emission intensities of the FITC and terbium fluorophores (F^em 520 nm/F^em 490 nm). […]
Compound potencies were determined by first calculating % inhibition at each compound concentration according to equation 1: […]
In general terms: TR-FRET usually uses a lanthanide donor and a delayed reading to cut background.

For another data set, the system named is KO-52 cells. The data set can be described thus: Proliferation assay (spheroid assay) KO-52 control cell line. Conditions: 8 days, MLL wildtype control cell line; read-out: spheroid assay_KO-52 IC50. It is filed as cell-based, human. The protocol:
as §1, §2, §3, §4, §5

Data set [2] in a line: Dynamic vapor sorption (DVS) moisture sorption analysis. It is filed as physicochemical. Conditions: after 2 cycles of vapor adsorption/desorption. The protocol: The moisture sorption analysis (DVS) was performed using a ProUmid GmbH & Co. KG Vsorp Enhanced dynamic vapor sorption apparatus. The moisture profile was evaluated by monitoring vapor adsorption/desorption over the range of 0 to 90% relative humidity at 25° C. The sample weight equilibrium criteria were set at ≤0.010% change in 45 min with minimum and maximum time of acclimation at 50 min and 120 min, respectively. The moisture profile consisted of 2 cycles of vapor adsorption/desorption.

In another data set the test system is MOLM14 cells. The data set can be described thus: Proliferation assay (spheroid assay) MOLM14. The format is cell-based, human. Conditions: 8 days, MLL-AF9 cell line; read-out: spheroid assay_MOLM14 IC50. The protocol: as §1, §2, §3, §4, §5

Menin/MLL (terbium chelate-labeled menin, FITC-MBM1 peptide), sequence (O00255 other isoform, or with tags, fused parts or gaps): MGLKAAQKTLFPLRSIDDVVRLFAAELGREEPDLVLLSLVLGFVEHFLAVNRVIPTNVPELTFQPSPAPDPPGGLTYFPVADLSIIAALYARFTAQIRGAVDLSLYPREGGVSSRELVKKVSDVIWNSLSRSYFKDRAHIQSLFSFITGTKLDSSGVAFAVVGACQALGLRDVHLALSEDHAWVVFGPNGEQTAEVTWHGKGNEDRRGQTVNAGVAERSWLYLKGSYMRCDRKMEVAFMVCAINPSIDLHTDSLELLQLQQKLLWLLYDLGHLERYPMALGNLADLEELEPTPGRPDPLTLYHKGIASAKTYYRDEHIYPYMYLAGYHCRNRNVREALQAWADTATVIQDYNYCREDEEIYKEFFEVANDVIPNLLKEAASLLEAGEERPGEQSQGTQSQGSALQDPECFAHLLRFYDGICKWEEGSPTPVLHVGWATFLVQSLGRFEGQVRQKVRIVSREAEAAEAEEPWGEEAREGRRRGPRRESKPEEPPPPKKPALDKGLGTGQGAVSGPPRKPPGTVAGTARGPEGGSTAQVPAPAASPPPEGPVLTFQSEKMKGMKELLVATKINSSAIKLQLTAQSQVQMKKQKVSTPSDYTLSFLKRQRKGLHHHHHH

Usually IC50 stands for the concentration at which inhibition is half-maximal. Take `CC(=O)N1CCC(CN2CC[C@@H](Cc3cn(-c4ccc(F)cc4C(=O)N(C)C(C)C)c4cncc(C)c34)C2)CC1` [Compound 51a]: the IC50 amounted to 70 nM in the data set with OCI-AML3 cells; 11 nM in the data set on MEIS1 mRNA expression; 0.024 nM in data set [1]; 1200 nM in the data set on KO-52 cells; 13 nM with MOLM14 cells. For the same molecule, the “solid-state form stability after DVS test (XRPD)” value in data set [2] was “No indication of a solid-state form change was observed”.
